Experimental data published in patent US20230113037A1 (Bayer Aktiengesellschaft, priority 2019, published 2023).
Like-named read-outs stand apart in the source and are kept apart here.

Key:
AHR [1] = target: T1, AHR (Mus musculus, UniProt P30561); test: In vitro assay 3: antagonism in mouse cell line (AHR transactivation, firefly luciferase reporter, kynurenic acid prestimulated); type: cell-based; settings: 200 μM kynurenic acid, 20 hours, read-out: AHR Antagonism Mouse IC50
T1 sequence (P30561 1-848 P471L/N533S/M589L): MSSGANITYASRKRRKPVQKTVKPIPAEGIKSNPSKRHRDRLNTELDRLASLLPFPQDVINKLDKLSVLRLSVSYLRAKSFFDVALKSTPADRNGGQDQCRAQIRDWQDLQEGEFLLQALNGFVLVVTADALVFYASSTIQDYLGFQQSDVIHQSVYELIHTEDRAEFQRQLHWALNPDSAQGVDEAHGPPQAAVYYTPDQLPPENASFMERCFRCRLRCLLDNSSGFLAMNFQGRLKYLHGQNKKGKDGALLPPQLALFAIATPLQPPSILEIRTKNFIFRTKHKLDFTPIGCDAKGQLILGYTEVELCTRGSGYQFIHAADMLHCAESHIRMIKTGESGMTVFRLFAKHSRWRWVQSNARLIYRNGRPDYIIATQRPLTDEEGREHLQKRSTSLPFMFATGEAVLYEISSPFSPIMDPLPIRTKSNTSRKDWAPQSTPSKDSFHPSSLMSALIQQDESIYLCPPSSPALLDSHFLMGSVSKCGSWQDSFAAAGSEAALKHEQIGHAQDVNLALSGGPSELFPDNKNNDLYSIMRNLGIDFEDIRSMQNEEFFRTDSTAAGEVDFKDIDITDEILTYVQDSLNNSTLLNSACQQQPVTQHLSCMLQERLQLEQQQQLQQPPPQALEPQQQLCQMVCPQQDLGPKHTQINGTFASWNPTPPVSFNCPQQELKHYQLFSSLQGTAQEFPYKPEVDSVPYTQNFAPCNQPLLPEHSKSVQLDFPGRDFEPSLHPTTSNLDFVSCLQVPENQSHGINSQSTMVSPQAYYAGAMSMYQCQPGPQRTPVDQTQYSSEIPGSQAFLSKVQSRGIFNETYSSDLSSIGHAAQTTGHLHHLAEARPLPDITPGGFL
Outline: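 Cells were first stimulated with kynurenic acid, then exposed to test compound, after which firefly luciferase from a DRE-containing AHR reporter was read out. Signal was scaled between positive and negative controls. Cells not given kynurenic acid provided the inhibition reference.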

AHR [2] = target: T2, AHR (Homo sapiens, UniProt P35869); test: In vitro assay 1: antagonism in human cell line (AHR transactivation, firefly luciferase reporter, kynurenic acid prestimulated); type: cell-based; settings: AHR Antagonism Human IC50 [M]
T2 construct: U87 MG glioblastoma cells (ATCC #HTB-14) endogenously expressing AHR; endogenous in cells; host or cells: U87 MG glioblastoma cells (ATCC #HTB-14)
T2 sequence (P35869 11-848): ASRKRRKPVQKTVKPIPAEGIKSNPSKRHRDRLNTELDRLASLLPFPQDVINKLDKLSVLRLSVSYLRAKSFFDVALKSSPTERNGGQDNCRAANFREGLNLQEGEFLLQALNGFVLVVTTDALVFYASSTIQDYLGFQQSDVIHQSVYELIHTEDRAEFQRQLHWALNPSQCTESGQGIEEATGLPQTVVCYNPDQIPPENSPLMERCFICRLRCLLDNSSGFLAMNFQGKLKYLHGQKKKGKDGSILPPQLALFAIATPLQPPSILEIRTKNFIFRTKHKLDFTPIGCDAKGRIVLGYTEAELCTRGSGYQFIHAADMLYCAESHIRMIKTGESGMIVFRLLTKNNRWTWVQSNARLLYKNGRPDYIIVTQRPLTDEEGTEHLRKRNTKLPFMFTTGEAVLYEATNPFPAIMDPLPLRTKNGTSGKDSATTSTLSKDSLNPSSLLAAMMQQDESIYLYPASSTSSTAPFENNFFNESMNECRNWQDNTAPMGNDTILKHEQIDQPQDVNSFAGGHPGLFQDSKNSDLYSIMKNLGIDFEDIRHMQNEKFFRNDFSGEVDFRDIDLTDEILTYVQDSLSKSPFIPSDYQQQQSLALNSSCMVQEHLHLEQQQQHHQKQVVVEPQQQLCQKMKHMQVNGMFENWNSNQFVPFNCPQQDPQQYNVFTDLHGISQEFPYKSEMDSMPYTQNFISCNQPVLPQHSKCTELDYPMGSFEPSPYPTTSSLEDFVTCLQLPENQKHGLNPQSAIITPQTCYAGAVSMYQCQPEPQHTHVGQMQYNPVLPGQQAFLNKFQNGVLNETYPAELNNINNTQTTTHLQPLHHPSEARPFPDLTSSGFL
Outline: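 U87 MG + DRE-firefly/constitutive-Renilla stable reporters; kynurenic acid prestim; dual-luc read; Renilla = tox; normalized vs pos/neg controls (pos: 150 μM KYNA + 5 μM staurosporine).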

[3] = Hepa 1c1c7 cells, firefly luciferase reporter

SMILES: COc1cccc(-c2nc3c4ccccc4nc(N[C@H](Cc4ccccc4)C(N)=O)n3n2)c1 [Example 90, N^2-[2-(3-methoxyphenyl)[1,2,4]triazolo[1,5-c]quinazolin-5-yl]-D-phenylalaninamide]
- IC50 (AHR [1]; mouse Hepa 1c1c7 cells): 6.34 nM
- IC50 (AHR [2]): 4.54e-09 M

SMILES: C[C@@H](Nc1nc2c(Br)cccc2c2nc(-c3cnn(C)c3)nn12)C(=O)NCCN(C)C(=O)OC(C)(C)C [Example 888, tert-butyl [2-({N-[7-bromo-2-(1-methyl-1H-pyrazol-4-yl)[1,2,4]triazolo[1,5-c]quinazolin-5-yl]-D-alanyl}amino)ethyl]methylcarbamate]
- IC50 (AHR [1]; [3]): 24.8 nM
- IC50 (AHR [2]; firefly luciferase reporter): 1.73e-08 M

SMILES: O=C1NCCNC[C@H]1Nc1nc2c(Cl)cccc2c2nc(-c3cnn(C4CC4)c3)nn12 [Example 966, (6R)-6-{[7-chloro-2-(1-cyclopropyl-1H-pyrazol-4-yl)[1,2,4]triazolo[1,5-c]quinazolin-5-yl]amino}-1,4-diazepan-5-one]
- IC50 (AHR [1]; [3]): 9.29 nM
- IC50 (AHR [2]; firefly luciferase reporter): 9.02e-09 M

SMILES: COc1ccc(-c2nc3c4ccc(OC)cc4nc(N[C@@H]4CCCCNC4=O)n3n2)cc1 [Example 549, (3R)-3-{[8-methoxy-2-(4-methoxyphenyl)[1,2,4]triazolo[1,5-c]quinazolin-5-yl]amino}azepan-2-one]
- IC50 (AHR [1]; mouse Hepa 1c1c7 cells): 17400 nM
- IC50 (AHR [2]): 7.33e-08 M

SMILES: CN(C)Cc1noc(-c2nc3c4ccccc4nc(N[C@@H]4CCCCNC4=O)n3n2)n1 [Example 304, (3R)-3-[(2-{3-[(Dimethylamino)methyl]-1,2,4-oxadiazol-5-yl}[1,2,4]triazolo[1,5-c]quinazolin-5-yl)amino]azepan-2-one]
- IC50 (AHR [1]; mouse Hepa 1c1c7 cells): 1830 nM
- IC50 (AHR [2]): 2.86e-06 M

SMILES: O=C1NCCC[C@H]1Nc1nc2ccccc2c2nc(-c3cccc(OC(F)(F)F)c3)nn12 [Example 311, (3R)-3-({2-[3-(trifluoromethoxy)phenyl][1,2,4]triazolo[1,5-c]quinazolin-5-yl}amino)piperidin-2-one]
- IC50 (AHR [1]; mouse Hepa 1c1c7 cells): 111 nM
- IC50 (AHR [2]): 1.36e-07 M

SMILES: CC[C@@H](Nc1nc2ccccc2c2nc(-c3ccc(OC)cc3OC(F)(F)F)nn12)C(N)=O [Example 511, (2R)-2-({2-[4-methoxy-2-(trifluoromethoxy)phenyl][1,2,4]triazolo[1,5-c]quinazolin-5-yl}amino)butanamide]
- IC50 (AHR [1]; mouse Hepa 1c1c7 cells): 1.4 nM
- IC50 (AHR [2]): 7.5e-09 M

SMILES: CC(C)c1cccc2c1nc(N[C@@H]1CCCCNC1=O)n1nc(-c3cnn(C)c3)nc21 [Example 588, (3R)-3-{[2-(1-methyl-1H-pyrazol-4-yl)-7-(propan-2-yl)[1,2,4]triazolo[1,5-c]quinazolin-5-yl]amino}azepan-2-one]
- IC50 (AHR [1]; mouse Hepa 1c1c7 cells): 1060 nM
- IC50 (AHR [2]): 1.84e-08 M

SMILES: CCNC(=O)C(CC)Nc1nc2ccccc2c2nc(-c3ccccc3OC(F)(F)F)nn12 (single isomer, unassigned) [Example 663, N-ethyl-2-({2-[2-(trifluoromethoxy)phenyl][1,2,4]triazolo[1,5-c]quinazolin-5-yl}amino)butanamide]
- IC50 (AHR [1]; mouse Hepa 1c1c7 cells): 317 nM
- IC50 (AHR [2]): > 2e-05 M

SMILES: CCOC(=O)[C@@H](C)Nc1nc2ccccc2c2nc(-c3ccc(OC)cc3)nn12 [Example 657, ethyl N-[2-(4-methoxyphenyl)[1,2,4]triazolo[1,5-c]quinazolin-5-yl]-D-alaninate]
- IC50 (AHR [1]; mouse Hepa 1c1c7 cells): 82.1 nM
- IC50 (AHR [2]): 1.4e-08 M

SMILES: Cc1cc(-c2nc3c4ccccc4nc(N[C@@H]4CCNC4=O)n3n2)cs1 [Example 356, (3R)-3-{[2-(5-methylthiophen-3-yl)[1,2,4]triazolo[1,5-c]quinazolin-5-yl]amino}pyrrolidin-2-one]
- IC50 (AHR [1]; mouse Hepa 1c1c7 cells): 30.4 nM
- IC50 (AHR [2]): 2.71e-08 M

SMILES: Cn1cc(-c2nc3c4cccc(F)c4nc(N[C@@H]4CCCCNC4=O)n3n2)cn1 [Example 551, (3R)-3-{[7-fluoro-2-(1-methyl-1H-pyrazol-4-yl)[1,2,4]triazolo[1,5-c]quinazolin-5-yl]amino}azepan-2-one]
- IC50 (AHR [1]; mouse Hepa 1c1c7 cells): 13.8 nM
- IC50 (AHR [2]): 1.17e-08 M

SMILES: CC(C)n1cc(-c2nc3c4cccc(C(F)(F)F)c4nc(N[C@H]4CNCCNC4=O)n3n2)cn1 [Example 960, (6S)-6-({2-[1-(propan-2-yl)-1H-pyrazol-4-yl]-7-(trifluoromethyl)[1,2,4]triazolo[1,5-c]quinazolin-5-yl}amino)-1,4-diazepan-5-one]
- IC50 (AHR [1]; [3]): 93 nM
- IC50 (AHR [2]; firefly luciferase reporter): 4.02e-08 M

SMILES: COc1ccc(-c2nc3c4cccc(S(=O)(=O)C(C)C)c4nc(N[C@@H]4CCCCNC4=O)n3n2)cc1 [Example 843, (3R)-3-{[2-(4-methoxyphenyl)-7-(propane-2-sulfonyl)[1,2,4]triazolo[1,5-c]quinazolin-5-yl]amino}azepan-2-one]
- IC50 (AHR [1]; [3]): 11.1 nM
- IC50 (AHR [2]; firefly luciferase reporter): 4.46e-09 M

SMILES: CC(C)n1cc(-c2nc3c4cccc(C5CC5)c4nc(N[C@@H]4CNCCNC4=O)n3n2)cn1 [Example 955, (6R)-6-({7-cyclopropyl-2-[1-(propan-2-yl)-1H-pyrazol-4-yl][1,2,4]triazolo[1,5-c]quinazolin-5-yl}amino)-1,4-diazepan-5-one]
- IC50 (AHR [1]; [3]): 452 nM
- IC50 (AHR [2]; firefly luciferase reporter): 5.57e-08 M

SMILES: CCn1cc(-c2nc3c4cccc(Cl)c4nc(N[C@@H]4CNCCNC4=O)n3n2)c(C)n1 [Example 958, (6R)-6-{[7-chloro-2-(1-ethyl-3-methyl-1H-pyrazol-4-yl)[1,2,4]triazolo[1,5-c]quinazolin-5-yl]amino}-1,4-diazepan-5-one]
- IC50 (AHR [1]; [3]): 2.84 nM
- IC50 (AHR [2]; firefly luciferase reporter): 1.9e-09 M

SMILES: C[C@@H](Nc1nc2c(C(F)(F)F)cccc2c2nc(-c3cnn(C)c3)nn12)C(=O)N1CCN(C)CC1 [Example 875, (2R)-1-(4-methylpiperazin-1-yl)-2-{[2-(1-methyl-1H-pyrazol-4-yl)-7-(trifluoromethyl)[1,2,4]triazolo[1,5-c]quinazolin-5-yl]amino}propan-1-one]
- IC50 (AHR [1]; [3]): 31.5 nM
- IC50 (AHR [2]; firefly luciferase reporter): 1.69e-08 M

SMILES: O=C1NCCCC[C@H]1Nc1nc2ccccc2c2nc(-c3nc(C4CC4)no3)nn12 [Example 135, (3R)-3-{[2-(3-cyclopropyl-1,2,4-oxadiazol-5-yl)[1,2,4]triazolo[1,5-c]quinazolin-5-yl]amino}azepan-2-one]
- IC50 (AHR [1]; mouse Hepa 1c1c7 cells): 20.5 nM
- IC50 (AHR [2]): 2.77e-08 M

SMILES: O=C1NCCCC[C@H]1Nc1nc2ccccc2c2nc(-c3ccc(Cl)cc3)nn12 [Example 6]
- IC50 (AHR [1]; mouse Hepa 1c1c7 cells): > 10000 nM
- IC50 (AHR [2]): 5.93e-10 M

SMILES: CS(=N)(=O)c1cccc(-c2nc3c4ccccc4nc(N[C@@H]4CCCCNC4=O)n3n2)c1 (single isomer, unassigned) [Example 660]
- IC50 (AHR [1]; mouse Hepa 1c1c7 cells): 927 nM
- IC50 (AHR [2]): 8.48e-07 M

SMILES: Cn1cc(-c2nc3c4cccc(C5CC5)c4nc(N[C@@H]4CCCCNC4=O)n3n2)cn1 [Example 207, (3R)-3-{[7-cyclopropyl-2-(1-methyl-1H-pyrazol-4-yl)[1,2,4]triazolo[1,5-c]quinazolin-5-yl]amino}azepan-2-one]
- IC50 (AHR [1]; mouse Hepa 1c1c7 cells): 242 nM
- IC50 (AHR [2]): 1.77e-08 M

SMILES: COc1cccc(-c2nc3c4ccccc4nc(N[C@H](CO)C(N)=O)n3n2)c1 [Example 79, N^2-[2-(3-methoxyphenyl)[1,2,4]triazolo[1,5-c]quinazolin-5-yl]-D-serinamide]
- IC50 (AHR [1]; mouse Hepa 1c1c7 cells): 52.2 nM
- IC50 (AHR [2]): 4.9e-08 M
